The numbers were not newly measured in patent US20250064782A1, “Methods of Treating Substance Use Disorders Using 5-MeO-DMT” (Journey Colab Corp., priority 2021, published 2025), which cites them from elsewhere.

The conditions of data set [1]: rodents; Shen et al. 2011, Ermakova et al. 2022.
Data set [2] deals with IL-6. As to conditions: Uthaug et al. 2020.

For the compound `COc1ccc2[nH]cc(CCN(C)C)c2c1` [5-MeO-DMT, 5-methoxy-N,N-dimethyltryptamine], the “pharmacokinetics of 5-MeO-DMT” value in data set [1] is given as “Non-linear pharmacokinetics”. In data set [2], the IL-6 levels post-administration result is “significantly decrease IL-6 levels”.
